Experimental data published in publication PMC6704710, “Preclinical evaluation of 3D185, a novel potent inhibitor of FGFR1/2/3 and CSF-1R, in FGFR-dependent and macrophage-dominant cancer models” (Journal of Experimental & Clinical Cancer Research : CR, 2019).

How the values were obtained:
Assay in all cases: Eurofins kinase panel
Format in all cases: biochemical
Details in all cases: read-out: Inhibition rate (%)
[1] = target: T1, PI3 Kinase (p110α/p65α)(h) (Homo sapiens, UniProt P42336)
T1 construct: purchased Eurofins (KinaseProfiler)

Rsk3(h) = target: T2, Rsk3(h) (Homo sapiens, UniProt Q15349)
T2 construct: purchased Eurofins (KinaseProfiler)

ROCK-I(h) = target: T3, ROCK-I(h) (Homo sapiens, UniProt Q13464)
T3 construct: purchased Eurofins (KinaseProfiler)

VRK2(h) = target: T4, VRK2(h) (Homo sapiens, UniProt Q86Y07)
T4 construct: purchased Eurofins (KinaseProfiler)

LKB1(h) = target: T5, LKB1(h) (Homo sapiens, UniProt Q15831)
T5 construct: purchased Eurofins (KinaseProfiler)
T5 sequence (Q15831 1-433): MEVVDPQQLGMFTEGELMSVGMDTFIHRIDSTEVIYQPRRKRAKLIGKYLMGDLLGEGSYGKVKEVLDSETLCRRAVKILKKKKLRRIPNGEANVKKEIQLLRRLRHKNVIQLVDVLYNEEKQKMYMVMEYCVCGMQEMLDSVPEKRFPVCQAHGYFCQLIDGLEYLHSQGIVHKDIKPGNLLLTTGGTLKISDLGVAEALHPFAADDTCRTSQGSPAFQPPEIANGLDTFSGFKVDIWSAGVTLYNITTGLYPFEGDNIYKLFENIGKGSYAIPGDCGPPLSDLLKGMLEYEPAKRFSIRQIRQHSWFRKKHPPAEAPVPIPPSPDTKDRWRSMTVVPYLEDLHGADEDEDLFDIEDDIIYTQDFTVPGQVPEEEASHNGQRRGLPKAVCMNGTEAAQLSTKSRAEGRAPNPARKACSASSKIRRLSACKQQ
T5 sequence (Q7RTN6 1-431 partner): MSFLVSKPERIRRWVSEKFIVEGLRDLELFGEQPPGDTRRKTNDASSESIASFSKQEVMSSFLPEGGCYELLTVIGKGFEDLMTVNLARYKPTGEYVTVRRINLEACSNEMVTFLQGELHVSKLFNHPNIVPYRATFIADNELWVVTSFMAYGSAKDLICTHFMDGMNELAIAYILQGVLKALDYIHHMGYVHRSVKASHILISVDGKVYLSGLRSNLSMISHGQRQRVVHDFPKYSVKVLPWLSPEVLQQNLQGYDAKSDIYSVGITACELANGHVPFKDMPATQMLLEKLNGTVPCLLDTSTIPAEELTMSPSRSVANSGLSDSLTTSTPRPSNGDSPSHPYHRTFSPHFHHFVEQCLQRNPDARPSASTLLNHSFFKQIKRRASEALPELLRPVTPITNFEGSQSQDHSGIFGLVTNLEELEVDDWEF
T5 sequence (Q9Y376 1-341 partner): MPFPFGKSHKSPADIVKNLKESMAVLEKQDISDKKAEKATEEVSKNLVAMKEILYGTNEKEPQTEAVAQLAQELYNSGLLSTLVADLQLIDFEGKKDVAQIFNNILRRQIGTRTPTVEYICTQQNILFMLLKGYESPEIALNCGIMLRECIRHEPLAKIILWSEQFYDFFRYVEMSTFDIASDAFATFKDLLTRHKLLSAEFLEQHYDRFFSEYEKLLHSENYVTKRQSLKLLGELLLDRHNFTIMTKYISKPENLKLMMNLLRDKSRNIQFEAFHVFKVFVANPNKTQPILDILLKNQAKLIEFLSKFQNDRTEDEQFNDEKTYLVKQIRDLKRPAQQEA

T1 sequence (P42336 whole entry): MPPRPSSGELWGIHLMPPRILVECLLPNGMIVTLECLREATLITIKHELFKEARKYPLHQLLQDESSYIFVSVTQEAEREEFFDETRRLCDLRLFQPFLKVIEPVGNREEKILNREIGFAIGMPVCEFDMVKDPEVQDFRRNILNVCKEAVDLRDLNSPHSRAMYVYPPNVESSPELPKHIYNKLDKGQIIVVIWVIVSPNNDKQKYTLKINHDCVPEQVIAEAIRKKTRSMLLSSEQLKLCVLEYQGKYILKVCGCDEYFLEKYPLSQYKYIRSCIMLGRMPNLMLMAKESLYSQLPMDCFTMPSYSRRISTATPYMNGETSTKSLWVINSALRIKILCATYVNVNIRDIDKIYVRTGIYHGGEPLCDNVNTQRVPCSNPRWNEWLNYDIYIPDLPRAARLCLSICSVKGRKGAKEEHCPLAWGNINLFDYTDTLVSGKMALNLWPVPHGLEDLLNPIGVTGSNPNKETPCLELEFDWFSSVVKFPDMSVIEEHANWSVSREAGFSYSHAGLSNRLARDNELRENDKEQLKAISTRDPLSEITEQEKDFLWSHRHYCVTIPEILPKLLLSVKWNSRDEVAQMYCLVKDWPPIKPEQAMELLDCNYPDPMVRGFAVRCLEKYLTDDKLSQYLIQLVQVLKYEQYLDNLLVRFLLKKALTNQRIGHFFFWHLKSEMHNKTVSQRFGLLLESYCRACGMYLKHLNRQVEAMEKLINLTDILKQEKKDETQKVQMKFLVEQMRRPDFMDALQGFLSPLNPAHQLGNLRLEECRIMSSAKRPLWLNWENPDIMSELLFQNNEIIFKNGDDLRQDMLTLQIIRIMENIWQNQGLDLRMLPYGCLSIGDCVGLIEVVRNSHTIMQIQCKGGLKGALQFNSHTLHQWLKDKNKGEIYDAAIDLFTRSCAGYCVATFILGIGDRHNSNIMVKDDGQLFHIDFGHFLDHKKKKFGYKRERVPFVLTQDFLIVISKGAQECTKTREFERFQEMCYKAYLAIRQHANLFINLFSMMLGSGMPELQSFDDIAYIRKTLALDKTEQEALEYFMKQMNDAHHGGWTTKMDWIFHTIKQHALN
T1 sequence (P27986 1-571 partner limits assumed): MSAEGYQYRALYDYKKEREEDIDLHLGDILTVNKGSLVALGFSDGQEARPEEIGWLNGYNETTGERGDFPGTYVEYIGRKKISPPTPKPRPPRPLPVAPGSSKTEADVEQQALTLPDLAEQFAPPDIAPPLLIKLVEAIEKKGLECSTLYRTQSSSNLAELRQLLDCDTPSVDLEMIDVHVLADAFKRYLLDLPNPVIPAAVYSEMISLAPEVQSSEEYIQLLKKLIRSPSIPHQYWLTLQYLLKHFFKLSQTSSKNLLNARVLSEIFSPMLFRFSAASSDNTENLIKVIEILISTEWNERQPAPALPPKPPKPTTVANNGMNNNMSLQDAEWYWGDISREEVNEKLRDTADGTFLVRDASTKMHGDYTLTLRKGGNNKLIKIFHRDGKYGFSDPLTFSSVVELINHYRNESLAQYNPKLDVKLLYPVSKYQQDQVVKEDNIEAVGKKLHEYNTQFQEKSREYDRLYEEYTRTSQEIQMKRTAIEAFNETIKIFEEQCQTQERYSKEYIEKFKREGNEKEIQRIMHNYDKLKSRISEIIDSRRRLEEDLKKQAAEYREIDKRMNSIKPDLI
T3 sequence (Q13464 whole entry): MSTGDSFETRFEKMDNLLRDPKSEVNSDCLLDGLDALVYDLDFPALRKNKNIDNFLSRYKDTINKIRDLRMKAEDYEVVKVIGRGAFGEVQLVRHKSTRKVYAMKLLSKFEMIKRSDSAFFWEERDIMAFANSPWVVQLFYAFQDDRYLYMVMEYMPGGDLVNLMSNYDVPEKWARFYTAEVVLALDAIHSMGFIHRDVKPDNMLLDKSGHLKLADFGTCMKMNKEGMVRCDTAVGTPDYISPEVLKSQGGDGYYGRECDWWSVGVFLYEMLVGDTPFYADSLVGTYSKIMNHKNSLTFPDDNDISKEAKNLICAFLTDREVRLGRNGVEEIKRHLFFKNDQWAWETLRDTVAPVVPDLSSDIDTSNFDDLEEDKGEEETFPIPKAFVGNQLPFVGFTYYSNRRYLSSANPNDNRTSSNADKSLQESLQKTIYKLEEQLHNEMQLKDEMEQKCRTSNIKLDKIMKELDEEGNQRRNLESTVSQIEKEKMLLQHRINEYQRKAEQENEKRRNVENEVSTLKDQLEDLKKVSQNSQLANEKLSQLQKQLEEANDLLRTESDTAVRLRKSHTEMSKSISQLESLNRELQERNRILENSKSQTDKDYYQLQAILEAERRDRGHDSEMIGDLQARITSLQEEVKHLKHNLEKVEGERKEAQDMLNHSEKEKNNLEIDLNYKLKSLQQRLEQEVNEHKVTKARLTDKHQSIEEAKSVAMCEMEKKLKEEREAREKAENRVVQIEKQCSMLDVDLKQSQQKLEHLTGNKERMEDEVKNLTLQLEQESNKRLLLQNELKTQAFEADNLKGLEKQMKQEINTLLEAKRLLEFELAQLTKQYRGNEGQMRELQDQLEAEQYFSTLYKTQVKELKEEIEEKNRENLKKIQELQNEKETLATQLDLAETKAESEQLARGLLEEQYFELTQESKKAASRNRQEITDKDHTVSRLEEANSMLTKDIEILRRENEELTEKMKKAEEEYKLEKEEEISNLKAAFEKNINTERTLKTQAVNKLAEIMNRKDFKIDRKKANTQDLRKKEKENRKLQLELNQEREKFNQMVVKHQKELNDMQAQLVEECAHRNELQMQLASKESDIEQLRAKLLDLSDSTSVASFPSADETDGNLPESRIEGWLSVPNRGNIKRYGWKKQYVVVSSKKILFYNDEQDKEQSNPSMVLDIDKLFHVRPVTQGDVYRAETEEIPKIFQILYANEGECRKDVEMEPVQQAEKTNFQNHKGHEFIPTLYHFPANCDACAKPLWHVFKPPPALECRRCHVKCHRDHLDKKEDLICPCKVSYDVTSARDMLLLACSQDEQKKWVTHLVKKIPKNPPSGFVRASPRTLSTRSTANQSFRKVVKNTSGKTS
T2 sequence (Q15349 whole entry): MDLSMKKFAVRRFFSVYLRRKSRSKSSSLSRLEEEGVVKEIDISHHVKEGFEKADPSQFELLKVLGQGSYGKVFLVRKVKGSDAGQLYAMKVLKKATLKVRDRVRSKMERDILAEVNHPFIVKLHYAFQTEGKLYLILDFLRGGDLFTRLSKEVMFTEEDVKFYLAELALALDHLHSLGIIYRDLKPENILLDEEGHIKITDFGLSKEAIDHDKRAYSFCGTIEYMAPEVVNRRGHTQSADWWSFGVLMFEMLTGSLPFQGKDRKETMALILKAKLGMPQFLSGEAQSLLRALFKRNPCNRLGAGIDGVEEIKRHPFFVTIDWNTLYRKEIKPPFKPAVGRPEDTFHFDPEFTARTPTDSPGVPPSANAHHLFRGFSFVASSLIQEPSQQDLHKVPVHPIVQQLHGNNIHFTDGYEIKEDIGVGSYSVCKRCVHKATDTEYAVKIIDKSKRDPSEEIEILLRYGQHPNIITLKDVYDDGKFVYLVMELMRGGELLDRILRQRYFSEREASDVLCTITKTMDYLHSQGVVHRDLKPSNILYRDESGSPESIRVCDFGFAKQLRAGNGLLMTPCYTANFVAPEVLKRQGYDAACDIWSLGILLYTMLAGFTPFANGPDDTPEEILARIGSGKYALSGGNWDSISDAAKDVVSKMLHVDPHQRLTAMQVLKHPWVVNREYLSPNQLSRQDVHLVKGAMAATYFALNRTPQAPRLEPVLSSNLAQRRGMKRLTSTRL
T4 sequence (Q86Y07 whole entry): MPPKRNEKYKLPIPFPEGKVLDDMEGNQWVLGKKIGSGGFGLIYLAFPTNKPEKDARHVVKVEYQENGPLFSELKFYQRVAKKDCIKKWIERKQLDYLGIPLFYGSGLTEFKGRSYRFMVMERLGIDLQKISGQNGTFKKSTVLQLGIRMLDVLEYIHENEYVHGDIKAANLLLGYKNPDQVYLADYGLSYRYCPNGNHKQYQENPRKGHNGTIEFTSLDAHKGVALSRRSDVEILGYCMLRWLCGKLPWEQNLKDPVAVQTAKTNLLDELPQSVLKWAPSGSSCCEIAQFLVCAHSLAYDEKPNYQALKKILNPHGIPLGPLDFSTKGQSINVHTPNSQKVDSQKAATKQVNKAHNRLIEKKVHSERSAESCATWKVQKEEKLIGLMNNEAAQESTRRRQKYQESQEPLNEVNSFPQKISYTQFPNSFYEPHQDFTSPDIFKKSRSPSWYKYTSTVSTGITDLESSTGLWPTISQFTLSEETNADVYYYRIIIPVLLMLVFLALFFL

`COc1cc(OC)c(Cl)c(-c2ccc3c(NC(=O)c4ccc(N5CCNC(C)(C)C5)cc4)n[nH]c3n2)c1Cl` [3D185] showed an inhibition at 0.01 µM ([1]; 10 nM) of 3%, an inhibition at 0.1 µM ([1]; 100 nM) of 2% and an inhibition at 1 µM ([1]; 1000 nM) of 0%. It also gave an inhibition at 0.01 µM (Rsk3(h); 10 nM) of -17%, an inhibition at 0.1 µM (Rsk3(h); 100 nM) of -19% and an inhibition at 1 µM (Rsk3(h); 1000 nM) of -15%. It also gave an inhibition at 0.01 µM (ROCK-I(h); 10 nM) of -2%, an inhibition at 0.1 µM (ROCK-I(h); 100 nM) of -12% and an inhibition at 1 µM (ROCK-I(h); 1000 nM) of -3%. It also gave an inhibition at 0.01 µM (VRK2(h); 10 nM) of 4%, an inhibition at 0.1 µM (VRK2(h); 100 nM) of 11% and an inhibition at 1 µM (VRK2(h); 1000 nM) of 17%. The inhibition at 0.01 µM (LKB1(h); 10 nM) was -9%, the inhibition at 0.1 µM (LKB1(h); 100 nM) was 7% and the inhibition at 1 µM (LKB1(h); 1000 nM) was 2%.
